Results published in patent US7485647B2, “2-aminoquinoline derivatives” (Banyu Pharmaceutical Co., Ltd., priority 2003, dated 2009).

target: T1, human MCH-1R (Homo sapiens, UniProt Q99705); assay: MCH binding inhibition test; conditions: membranes of MCH-1R expressing CHO-K1 cells, 50 pM [125I]MCH, 25° C., one hour; read-out: IC50 (50% inhibition concentration to specific [125I]MCH binding)
T1 construct: expressed in transfected cells; host or cells: CHO-K1 (American Type Culture Collection)
Procedure: A human MCH-1R encoding cDNA sequence [FEBS Letters, Vol. 398, p. 253 (1996); Biochimica et Biophisica Acta, Vol. 1401, p. 216 (1998)] was cloned to plasmid vector pEF/mic/cyto (Invitrogen Corporation). The obtained expression vector was transfected to a host cell CHO-K1 (American Type Culture Collection) using lipofectamine plus reagent (Life Technology Inc.) to provide MCH-1R expression cells.
Membrane samples prepared from the MCH-1R expression cells were incubated with each test compound and 50 pM of [^125I]MCH (NEN Co.), in an assay buffer (50 mM Tris buffer comprising 10 mM magnesium chloride, 2 mM ethylenediamine tetraacetate, 0.01% bacitracin and 0.2% bovine serum albumin; pH 7.4) at 25° C. for an hour, followed by filtration through Glass Filter GF/C (Wattman Co.). After washing the glass filter with 50 mM Tris buffer (pH7.4) comprising 10 mM magnesium chloride, 2 mM ethylenediamine tetraacetate and 0.04% Tween-20, radio activity on the glass filter was measured. Non-specific binding was measured in the presence of 1 μM human MCH and 50% inhibition concentration (IC50 value) of each test compound to specific [^125I] MCH binding was determined.

T1 sequence (Q99705 whole entry): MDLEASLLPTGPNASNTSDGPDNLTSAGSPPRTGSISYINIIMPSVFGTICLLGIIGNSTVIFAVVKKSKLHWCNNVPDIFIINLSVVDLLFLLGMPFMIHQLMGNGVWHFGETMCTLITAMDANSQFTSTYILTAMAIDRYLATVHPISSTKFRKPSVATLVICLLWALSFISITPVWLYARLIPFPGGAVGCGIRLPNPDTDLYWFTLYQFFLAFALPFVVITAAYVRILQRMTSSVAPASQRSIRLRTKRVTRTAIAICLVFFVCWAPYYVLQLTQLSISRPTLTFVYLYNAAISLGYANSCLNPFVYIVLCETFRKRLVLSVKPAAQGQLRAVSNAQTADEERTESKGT

Row | SMILES | IC50
1 | CN1C(=O)CCC12CCN(c1ccc3cc(NC(=O)c4ncc(-c5ccc(F)cc5)cn4)ccc3n1)C2 (stereo not drawn) [Example 1, 5-(4-Fluorophenyl)-N-[2-(1-methyl-2-oxo-1,7-diazaspiro[4,4]-nonan-7-yl)-6-quinolinyl]-2-pyrimidinecarboxamide] | 8 nM
2 | CC(C)C(=O)N(C)[C@@H]1CCN(c2ccc3cc(NC(=O)c4ncc(-c5ccccc5)cn4)ccc3n2)C1 [Example 3, N-(2-[(3R)-3-[isobutyryl(methyl)amino]-1-pyrrolidinyl]-6-quinolinyl)-5-phenyl-2-pyrimidinecarboxamide] | 4.1 nM
3 | CN(C)C(=O)N(C)[C@@H]1CCN(c2ccc3cc(NC(=O)c4ncc(-c5ccccc5)cn4)ccc3n2)C1 [Example 9, N-(2-[(3R)-3-[[(dimethylamino)carbonyl](methyl)amino]-1-pyrrolidinyl]-6-quinolinyl)-5-phenyl-2-pyrimidinecarboxamide] | 3.7 nM
